# Key:
# anti-insulin B cells = assay: BTK inhibitor treatment of 125Tg/NOD mice (Ibrutinib chow); B cell subsets assessed by flow cytometry in freshly isolated organs; type: in vivo, mouse
# Description: After 5-10 weeks, spleen, draining pancreatic lymph nodes, and pancreas were harvested and flow cytometry was used to analyze B cell subsets. […] Mice were 12-13 weeks old at time of analysis.
# B cell subsets were assessed by flow cytometry in freshly isolated organs as outlined below.
# BM was eluted from long bones, and spleens and pancreatic draining lymph nodes (PLN) were macerated with HBSS (Invitrogen) plus 10% FBS (HyClone). Red blood cells were lysed using Tris-NH4Cl. Freshly isolated pancreata were digested with 3 mL of 1 mg/mL collagenase P diluted in HBSS for 30 min at 37° C., then tissue was disrupted using an 18-gauge needle. Ice cold HBSS plus 10% FBS was immediately added to inhibit collagenase activity. Cells were directly analyzed by flow cytometry. Flow cytometry Ab reagents were reactive with B220 (6B2), IgM^a (DS-1), CD19 (1D3), CD21 (7G6), CD23 (B3B4), CD93 (AA4.1), or IgM chain-specific) (Life Technologies). Biotin N-hydroxysuccinimide ester (Sigma) was used to biotinylate human insulin (Sigma) at pH 8.0 in bicine buffer. Streptavidin reagents (BD Biosciences) were used to detect biotinylated reagents. 7AAD (BD Biosciences) was used to identify dead cells. Sample acquisition was performed using an LSR II flow cytometer (BD Biosciences) and FlowJo software (Treestar) was used for analysis.
# BTK is a complex protein with adapter as well as kinase functions that have independent effects on various aspects of B cell development and function. […] Flow cytometry analysis of freshly isolated splenocytes was used to identify B cell subsets as in FIG. 3.
# [1] = Example 3: prediabetic individual administered ibrutinib and cyclosporine A; type: in vivo; conditions: individual with impaired fasting glycemia and impaired glucose tolerance; ibrutinib administered with cyclosporine A
# Description: An individual presents with impaired fasting glycemia and impaired glucose tolerance. The individual is determined to be prediabetic.
# [2] = spleen, Ibrutinib vs. placebo chow, 125Tg/NOD mice
structure (smiles),measurement,setting,value
"C=CC(=O)N1CCC[C@@H](n2nc(-c3ccc(Oc4ccccc4)cc3)c3c(N)ncnc32)C1 [Ibrutinib, (R)-1-(3-(4-amino-3-(4-phenoxyphenyl)-1H-pyrazolo[3,4-d]pyrimidin-1-yl)piperidin-1-yl)prop-2-en-1-one]",trafficking of anti-insulin B lymphocytes to pancreatic draining lymph nodes or pancreas,anti-insulin B cells; 125Tg/NOD mice treated with Ibrutinib,does not block their trafficking to pancreatic draining lymph nodes or pancreas
same,non-B lymphocyte numbers in spleen,"anti-insulin B cells; 125Tg/NOD mice, Ibrutinib chow 5-10 weeks, 38 mg/kg per day, placebo 28.6±8.3, no difference",25.1±8.5 ×10^6
same,number of B lymphocytes (B220+ IgM+ live lymphocytes) in spleen,"anti-insulin B cells; 125Tg/NOD mice, Ibrutinib chow 5-10 weeks, average 38 mg/kg per day, placebo 22.2±5.8, p<0.001",10.1±2.8 ×10^6
same,T2 B cell subset numbers in the spleen,"anti-insulin B cells; 125Tg/NOD mice, Ibrutinib chow 5-10 weeks, placebo 17±3, p=0.51, no difference",49±76 ×10^4
same,pre-marginal zone B cell numbers in the spleen,"anti-insulin B cells; 125Tg/NOD mice, Ibrutinib chow 5-10 weeks, placebo 43±6, p=0.0015",17±5 ×10^4
same,follicular B cell numbers in the spleen,"anti-insulin B cells; 125Tg/NOD mice, Ibrutinib chow 5-10 weeks, placebo 345±38, p<0.001",41±37 ×10^4
same,marginal zone B cell numbers in the spleen,"anti-insulin B cells; 125Tg/NOD mice, Ibrutinib chow 5-10 weeks, placebo 1283±217, p=0.002",443±164 ×10^4
same,number of B cells in the pancreas,"anti-insulin B cells; 125Tg/NOD mice, Ibrutinib chow, placebo 5.2±7.7, p=0.36, no significant difference",0.66±0.80 ×10^4
same,number of B cells in the pancreatic draining lymph nodes,"anti-insulin B cells; 125Tg/NOD mice, Ibrutinib chow, placebo 21±8, p=0.49, no significant difference",26±9 ×10^4
same,reduction in follicular B cell numbers,anti-insulin B cells; [2],88%
same,reduction in marginal zone B cell numbers,anti-insulin B cells; [2],65%
same,reduction in pre-marginal zone B cell numbers,anti-insulin B cells; [2],60%
same,development of Type 1 Diabetes,[1],does not develop Type 1 Diabetes
